We go through one molecule from patent US20050129618A1, “Drugs for ameliorating itch, rough skin or hypersensitive skin or for whitening via inhibition of the production and release of stem cell factor” (Shiseido Co., ltd., priority 2001, published 2005).

The structures appear in SMILES notation.

The assay concerns SCF expression on keratinocyte membranes. Nature of the assay: Accelerated SCF expression on keratinocyte membranes by different stimulations. To be noted: chemical stimulation, culturing for 24 hours; FIG. 4. The format is cell-based, human. On the procedure:
After plating 1.5 million keratinocytes on a 10 cm plate and culturing for 72 hours, the cells were stimulated by one of the following: (1) exchanging the medium with PBS(−), irradiating the culture with UVB at 20 mJ/cm^2 and then immediately exchanging the PBS(−) with medium, (2) adding forskolin, or (3) adding theophyllin. After culturing for 24 hours, the cells were collected and then dispersed in 200 μl of 50 mM phosphate buffer solution (pH 7.8)+protease inhibitor solution, and the cells were then disrupted with an ultrasonic disrupter for five 30-second disruption cycles at 4° C. After centrifugation at 10,000 g for 20 minutes at 4° C., the supernatant was further centrifuged at 100,000 g for 60 minutes at 4° C. The obtained pellet was dissolved in 100 μl of 25 mM phosphate buffer solution (pH 6.8)+0.1% Triton-X100 solution and a membrane fraction protein extract was obtained. The protein content of the solution was measured by an established method, and then the SCF amount was assayed to obtain an SCF/protein value.

Turning to `Cn1c(=O)c2[nH]cnc2n(C)c1=O` [theophyllin], the “expression of SCF in the cells or on the cell membranes (SCF/protein value of membrane fraction)” value is listed as “accelerated expression of SCF”.
